# Source: US10881110B2, “Herbicidal compositions comprising isoxazolo[5,4-b]pyridines” (BASF SE, priority 2014, dated 2021)
# What was measured:
# Test in all cases: greenhouse post-emergence herbicidal test
# [1] = tested on: ERICA; assay type: in vivo, Conyza canadensis; design: key to herbicidal activity against ERICA found: rating on a scale from 0 to 100; details: post emergence
# Outline: (§1)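 Combination activity judged against additive expectation by Colby, E=X+Y−(X·Y/100), from 0–100 damage ratings taken 20 days post-spray. Plants at 1–15 cm in loamy sand (69.9% sand) were sprayed with components formulated as 10% w/w emulsion concentrate in water.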
# [2] = tested on: GALAP; assay type: in vivo, Galium aparine; design: key to herbicidal activity against GALAP found: rating on a scale from 0 to 100; details: post emergence; a.i. g/ha: I.1 62.5, B.191 225; 20 days after treatment
# Outline: (§2)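 Herbicidal activity scored on a 0 (no damage) to 100 (plants destroyed) scale, usually 20 days after water-based spraying of 1–15 cm plants grown in loamy sand at 10-25 °C or 20-35 °C depending on species. Components were applied from 10% emulsion concentrates; Colby's E=X+Y−(X·Y/100) gives the additive expectation.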
# [3] = tested on: MATCH; assay type: in vivo, Matricaria recutita; design: key to herbicidal activity against MATCH found: rating on a scale from 0 to 100
# Outline: as §1
# [4] = tested on: STEME; assay type: in vivo, Stellaria media; design: key: scale 0 to 100
# Protocol: (§3) The culture containers used were plastic pots containing medium loamy sand with approximately 4.6% of humus and 69.9% sand as substrate. The seeds of the test plants were sown separately for each species.
# (§4) For the post-emergence treatment, the test plants were grown to a plant height of from 1 to 15 cm, depending on the plant habit, and only then treated with the active compounds which had been suspended or emulsified in water. To this end, the test plants were either sown directly, and grown in the same containers, or they were first grown separately as seedlings and transplanted into the test containers a few days prior to treatment.
# (§5) Depending on the species, the plants were kept at 10-25° C. and 20-35° C., respectively.
# (§6) The test period extended over 1 to 3 weeks. During this time, the plants were tended and their response to the individual treatments was evaluated 20 days after treatment except mentioned otherwise.
# (§7) Evaluation was carried out using a scale from 0 to 100. 100 means no emergence of the plants, or complete destruction of at least the above-ground parts, and 0 means no damage or normal course of growth.
# (§8) The respective stated components A and B, and, if appropriate, C, were formulated as a 10% by weight strength emulsion concentrate and, with addition of the amount of solvent system, introduced into the spray liquor used for applying the active compound. In the examples, the solvent used was water.
# (§9) In the examples below, using the method of S. R. Colby (1967) “Calculating synergistic and antagonistic responses of herbicide combinations”, Weeds 15, p. 22 ff., the value E, which is expected if the activity of the individual active compounds is only additive, was calculated. E=X+Y−(X·Y/100)
# [5] = tested on: ECHCG; assay type: in vivo, Echinochloa crus-galli; design: key to herbicidal activity against ECHCG found / herbicidal activity against ECHCH found: scale 0 to 100; details: post emergence; application rate a.i.: I.1 31.25 g/ha, B.40 (imazethapyr) 7.5 g/ha, alone or as mixture (composition 1.40)
# Protocol: as §3, §4, §5, §6, §7, §8, §9
# [6] = tested on: GERDI; assay type: in vivo, Geranium dissectum; design: key to herbicidal activity against GERDI found: rating on a scale from 0 to 100; details: post emergence
# Outline: as §1
# [7] = tested on: IPOHE; assay type: in vivo, Ipomoea hederacea; design: key to herbicidal activity against IPOHE found: rating on a scale from 0 to 100; details: post emergence
# Outline: as §2
# [8] = tested on: PAPRH; assay type: in vivo, Papaver rhoeas; design: key: rating on a scale from 0 to 100; details: application rate a.i.: I.1 62.5 g/ha, B.40 (imazethapyr) 7.5 g/ha, alone or as mixture (composition 1.40)
# Protocol: as §3, §4, §5, §6, §7, §8, §9
# [9] = tested on: POLCO; assay type: in vivo, Polygonum convolvulus; design: key to herbicidal activity against POLCO found: rating on a scale from 0 to 100; details: for herbicidal activity against POLCO found: post emergence
# Outline: as §2
# [10] = tested on: ABUTH; assay type: in vivo, Abutilon theophrast; design: key to herbicidal activity against ABUTH found: rating on a scale from 0 to 100
# Outline: as §1
# [11] = tested on: ALOMY; assay type: in vivo, Alopecurus myosuroides; design: key to herbicidal activity against ALOMY found: rating on a scale from 0 to 100
# Outline: as §1
# [12] = tested on: APESV; assay type: in vivo, Apera spica-venti; details: Apera spica-venti, post-emergence, 480 h, read-out: herbicidal activity against APESV found
# Outline: as §1
# [13] = tested on: KCHSC; assay type: in vivo, Kochia scoparia; details: Bassia scoparia, post-emergence, 480 h, read-out: herbicidal activity against KCHSC found
# Outline: as §2
# [14] = tested on: VIOAR; assay type: in vivo, Viola arvensis; design: key to herbicidal activity against VIOAR found / herbicidal activity against VIOLA found: rating on a scale from 0 to 100
# Outline: as §2
# [15] = a.i. g/ha: I.1 62.5, B.191 225, 20 days after treatment
# [16] = application rate a.i.: I.1 31.25 g/ha, B.40 (imazethapyr) 7.5 g/ha, alone or as mixture (composition 1.40)
# [17] = application rate a.i.: I.1 62.5 g/ha, B.40 (imazethapyr) 7.5 g/ha, alone or as mixture (composition 1.40)
# [18] = Matricaria chamomilla, post-emergence, 480 h, read-out: herbicidal activity against MATCH found
# [19] = post emergence, I.1 62.5 g/ha, B.89 12.5 g/ha a.i.
# [20] = I.1 62.5 g/ha, B.89 25 g/ha a.i.
# [21] = I.1 15.62 g/ha, B.89 25 g/ha a.i.
# [22] = I.1 62.5 g/ha, B.89 12.5 g/ha a.i.
# [23] = I.1 31.25 g/ha, B.89 25 g/ha a.i.
smiles,measurement,setting,value
"CCCCCCCCSC(=O)Oc1cc(Cl)nnc1-c1ccccc1 [B.191, pyridate]",herbicidal activity against ERICA found,[1]; [15],70%
same,herbicidal activity against GALAP found,[2],90%
same,herbicidal activity against MATCH found,"[3]; post emergence, a.i. g/ha: I.1 62.5, B.191 225, 20 days after treatment",20%
same,herbicidal activity against STEME found,[4]; [15],0%
"CCc1cnc(C2=NC(C)(C(C)C)C(=O)N2)c(C(=O)O)c1 (stereo not shown) [B.40, imazethapyr]",herbicidal activity against ECHCG found,[5],85
same,herbicidal activity against GERDI found,[6]; [16],95
same,herbicidal activity against GERDI found,[6]; [17],90
same,herbicidal activity against IPOHE found,[7]; [17],80
same,herbicidal activity against PAPRH found,[8],45
same,herbicidal activity against POLCO found,[9]; [16],80
"C/C(=N\NC(=O)Nc1cc(F)cc(F)c1)c1ncccc1C(=O)O [B.174, diflufenzopyr]",pest or weed control at 20 g/ha,"[10]; Abutilon theophrasti, post-emergence, 480 h, read-out: herbicidal activity against ABUTH found",85%
same,pest or weed control at 20 g/ha,"[11]; Alopecurus myosuroides, post-emergence, 480 h, read-out: herbicidal activity against ALOMY found",0%
same,pest or weed control at 20 g/ha,[12],0%
same,pest or weed control at 20 g/ha,[13],65%
same,pest or weed control at 20 g/ha,[3]; [18],70%
same,pest or weed control at 40 g/ha,[3]; [18],70%
same,pest or weed control at 20 g/ha,"[9]; Fallopia convolvulus, post-emergence, 480 h, read-out: herbicidal activity against POLCO found",30%
same,herbicidal activity against STEME found,[4]; B.174 alone 40 g/ha a.i.,50
same,pest or weed control at 40 g/ha,"[14]; Viola arvensis, post-emergence, read-out: herbicidal activity against VIOAR found",65%
"CS(=O)(=O)NC(=O)c1cc(Oc2ccc(C(F)(F)F)cc2Cl)ccc1[N+](=O)[O-] [B.89, fomesafen]",herbicidal activity against ABUTH found,"[10]; post emergence, I.1 31.25 g/ha, B.89 25 g/ha a.i.",90
same,herbicidal activity against ALOMY found,[11]; [19],25
same,herbicidal activity against ERICA found,[1]; [20],20
same,herbicidal activity against GERDI found,[6]; [21],25
same,herbicidal activity against GERDI found,[6]; [22],25
same,herbicidal activity against GERDI found,[6]; [20],25
same,herbicidal activity against IPOHE found,[7]; [21],85
same,herbicidal activity against IPOHE found,[7]; [23],85
same,herbicidal activity against IPOHE found,[7]; [22],85
same,herbicidal activity against IPOHE found,[7]; [20],85
same,herbicidal activity against POLCO found,"[9]; I.1 15.62 g/ha, B.89 12.5 g/ha a.i.",95
same,herbicidal activity against STEME found,[4]; [21],0
same,herbicidal activity against STEME found,"[4]; I.1 31.25 g/ha, B.89 12.5 g/ha a.i.",0
same,herbicidal activity against STEME found,[4]; [23],0
same,herbicidal activity against VIOAR found,[14]; [19],55
